Measurements from US7166456B2, “Microorganism for producing riboflavin and method for producing riboflavin using the same” (CJ Corp., priority 2002, dated 2007).

Experiments:
[1] = system: Bacillus subtilis CJKB0001 (KCCM-10445); test: Evaluation of resistance against thiaproline (growth on thiaproline-containing minimal medium); format: cell-based; set-up: key: +: growth; −: not growth; conditions: 37° C., 5 days
Experimental: (§1) The Bacillus subtilis AS5 as the parent strain was obtained from BIONOM-S, Ltd. (Obolensk, Moscow, Russia). The Bacillus subtilis AS5 was suspended in phosphate buffer at pH 7.0 or citrate buffer at pH 5.5 to have a cell density of 10^7 to 10^8 cells/ml. A mutation-inducing agent, N-methyl-N′-nitro-N-nitrosoguanidine was added to the suspension until its concentration was 10 to 50 μg/ml. The resultant mixture was incubated at room temperature or 30° C. for 30 to 60 minutes to induce mutation. Then, the mixture was washed three times with 0.85% of saline solution and diluted in an appropriate manner. The diluted solution was plated onto 1.8% agar-containing minimal media with various concentrations of thiaproline and cultured at 37° C. for 5 days to obtain colonies. In this case, the concentration of thiaproline ranged from 0 mg/l to 100 mg/l. The formed colonies were inoculated onto nutrient agar media and cultured at 37° C. for 24 hours. Then, the resultant nutrient cultures were inoculated onto fermentation media and cultured at 37° C. for 4 to 5 days. The highest riboflavin-producing strain was selected.
In this example, in order to evaluate resistance to thiaproline, the Bacillus subtilis CJKB0001 (KCCM-10445) of Example 1 and the Bacillus subtilis AS5 as the parent strain were cultured in various concentrations of thiaproline-containing media. […]

Bacillus subtilis AS5 = test: as above; format: cell-based; set-up: key to growth of strain: +: growth; −: not growth; conditions: 37° C., 5 days
Experimental: as §1
In this example, in order to evaluate resistance to thiaproline, the Bacillus subtilis CJKB0001 (KCCM-10445) of Example 1 and the Bacillus subtilis AS5 as the parent strain were cultured in various concentrations of thiaproline-containing media. In detail, respective strains were inoculated onto thiaproline-containing media as shown in Table 1 and cultured at 37° C. for 5 days. In this case, the concentration of thiaproline ranged from 0 to 100 mg/l.

With `O=C(O)[C@@H]1CSCN1` [thiaproline] the growth of strain ([1]; 70 mg/l thiaproline) was “+”, the growth of strain ([1]; 100 mg/l thiaproline) was “−” and the growth of strain (Bacillus subtilis AS5; 40 mg/l thiaproline) was “+”. For the same compound, the growth of strain (Bacillus subtilis AS5; 50 mg/l thiaproline) was “−”, the growth of strain (Bacillus subtilis AS5; 70 mg/l thiaproline) was “−” and the growth of strain (Bacillus subtilis AS5; 100 mg/l thiaproline) was “−”. For the same compound, the “thiaproline concentration at which the strain cannot grow” value (Bacillus subtilis AS5; thiaproline-containing medium) was “more than 40 mg/l”.
